According to patent US9993493B2, “Composition for prevention, amelioration or treatment of metabolic syndrome” (HOUSE WELLNESS FOODS CORPORATION, priority 2010, dated 2018):

Key:
Format in all cases: in vivo, male KK mice
diet-induced obese mice [1] = experiment: Test Example 3: Oligonol and caffeine fed in low-calorie feed to diet-induced obese mice; conditions: vs control group, caffeine 0.025 mass %, Oligonol 0.1 mass %, mixture 0.1+0.025 mass %
Text: As the polyphenol containing 15 mass % or more of proanthocyanidin having a polymerization degree of 1 to 3 and caffeine, “Oligonol (trade name)” (distributor: […] Five-week-old male KK mice were fed with water and a powder feed for breeding (CE-2 (trade name), made by CLEA Japan, Inc.) for one week, and then fed with the high-calorie feed (4.70 kcal/g) in Table 1 for 3 weeks for induction of obesity. […] The feeds given to the test groups are as follows. • (1) Control group; low-calorie feed • (2) Caffeine administration group; low-calorie feed+0.025 mass % of caffeine • (3) Oligonol administration group; low-calorie feed+0.1 mass % of Oligonol • (4) Present invention (mixture of Oligonol and caffeine (4:1)) administration group; low-calorie feed+(0.1 mass % of Oligonol+0.025 mass % of caffeine) During the test period (2 weeks from the start of low-calorie feeding), body weight and feed intake were periodically measured. After the end of the test, the mice were euthanized, and subcutaneous fat tissue, epididymal fat tissue, and mesenteric (visceral) fat tissue were removed and separately weighed. Also, at the start of the test period (the start of low-calorie feeding) and the end of the test period, plasma triglyceride level was measured. The changes in body weight before and after the test period is shown in FIG. 8, the feed intake during the first 10 days of the test period is shown in FIG. 9, the total weight of subcutaneous, epididymal, and mesenteric fat tissues per 100 g of body weight is shown in FIG. 10, and the changes in plasma triglyceride level before and after the test period is shown in FIG. 11. The results are shown as Mean±SD of each group.

diet-induced obese mice [2] = experiment: Test Example 2: glucosyl hesperidin and caffeine mixtures (10:1, 20:1, 40:1) fed in low-calorie feed to diet-induced obese mice; conditions: vs control group, caffeine 0.0125 mass %, glucosyl hesperidin 0.25 mass %; for weight of subcutaneous fat tissue / weight of mesenteric (visceral) fat tissue: 2 weeks low-calorie feed; for weight of subcutaneous fat tissue: FIG. 6; for weight of mesenteric (visceral) fat tissue: FIG. 7; for changes in body weight: before and after 2 weeks low-calorie feed, FIG. 4
Text: Under the same conditions as in Test Example 1, the effect of the composition of the present invention comprising glucosyl hesperidin and caffeine was investigated. The glucosyl hesperidin and caffeine used here were the same as in Test Example 1.
Five-week-old male KK mice were fed with water and a powder feed for breeding (CE-2 (trade name), made by CLEA Japan, Inc.) for one week, and then fed with the high-calorie feed (4.70 kcal/g) in Table 1 for 3 weeks for induction of obesity. The mice were divided into 6 groups (a control group, a caffeine administration group, a glucosyl hesperidin administration group, and mixture of caffeine and glucosyl hesperidin (present invention) administration groups, 6 to 7 mice per group) and fed with the low-calorie feed (3.16 kcal/g) in Table 1 or the low-calorie feed supplemented with the corresponding test sample for 2 weeks, in expectation of using body fat. The feeds given to the test groups are as follows. • (1) Control group; low-calorie feed • (2) Caffeine administration group; low-calorie feed+0.0125 mass % of caffeine • (3) Glucosyl hesperidin administration group; low-calorie feed+0.25 mass % of glucosyl hesperidin • (4) Mixture of glucosyl hesperidin and caffeine (10:1) administration group; low-calorie feed+(0.25 mass % of glucosyl hesperidin+0.025 mass % of caffeine) • (5) Mixture of glucosyl hesperidin and caffeine (20:1) administration group; low-calorie feed+(0.25 mass % of glucosyl hesperidin+0.0125 mass % of caffeine) • (6) Mixture of glucosyl hesperidin and caffeine (40:1) administration group; low-calorie feed+(0.25 mass % of glucosyl hesperidin+0.00625 mass % of caffeine)
During the test period (2 weeks from the start of low-calorie feeding), body weight and feed intake were periodically measured. After the end of the test, the mice were euthanized, and subcutaneous fat tissue and mesenteric (visceral) fat tissue were removed and separately weighed.
(§1) The changes in body weight before and after the test period is shown in FIG. 4, the feed intake during the first 10 days of the test period is shown in FIG. 5, the weight of subcutaneous fat tissue per 100 g of body weight is shown in FIG. 6, and the weight of mesenteric fat tissue per 100 g of body weight is shown in FIG. 7. The results are shown as Mean±SD of each group. The $, **, and * in the figures indicate a significant difference with a risk less than 10%, a risk less than 1%, and a risk less than 5% from the control, respectively.

diet-induced obese mice [3] = experiment: Test Example 1: glucosyl hesperidin and caffeine fed in low-calorie feed to diet-induced obese mice; conditions: vs control group, caffeine 0.025 mass %, glucosyl hesperidin 0.25 mass %, mixture 0.25+0.025 mass %; for weight of mesenteric (visceral) fat tissue: 2 weeks low-calorie feed, FIG. 3; for changes in body weight: before and after 2 weeks low-calorie feed, FIG. 1
Text: In such a situation, the effect of the composition of the present invention comprising glucosyl hesperidin and caffeine was investigated. As the glucosyl hesperidin and caffeine, “Hayashibara Hesperidin S (trade name)” (distributor: Hayashibara Co., Ltd.) and “Chanomoto (trade name)” (purity of caffeine: 98.5%, made by Shiratori Pharmaceutical Co., Ltd.) were used, respectively.
Five-week-old male KK mice were fed with water and a powder feed for breeding (CE-2 (trade name), made by CLEA Japan, Inc.) for one week, and then fed with the high-calorie feed (4.70 kcal/g) in Table 1 shown below for 3 weeks for induction of obesity. The mice were divided into 4 groups (a control group, a caffeine administration group, a glucosyl hesperidin administration group, and a present invention administration group (caffeine+glucosyl hesperidin), 5 to 8 mice per group) and fed with the low-calorie feed (3.16 kcal/g) in Table 1 shown below or the low-calorie feed supplemented with the corresponding test sample for 2 weeks, in expectation of using body fat. The feeds given to the test groups are as follows. • (1) Control group; low-calorie feed • (2) Caffeine administration group; low-calorie feed+0.025 mass % of caffeine • (3) Glucosyl hesperidin administration group; low-calorie feed+0.25 mass % of glucosyl hesperidin • (4) Present invention (mixture of glucosyl hesperidin and caffeine (10:1)) administration group; low-calorie feed+(0.25 mass % of glucosyl hesperidin+0.025 mass % of caffeine)
During the test period (2 weeks from the start of low-calorie feeding), body weight and feed intake were periodically measured. After the end of the test, the mice were euthanized, and mesenteric (visceral) fat tissue was removed and weighed.
as §1, with “1,” for “4,”, “2,” for “5, the weight of subcutaneous fat tissue per 100 g of body weight is shown in FIG. 6,”, “3.” for “7.”, “**” for “$, **,”, “1%” for “10%, a risk less than 1%,”

Row | Molecule | total weight of fat tissues (subcutaneous, epididymal, and mesenteric) (diet-induced obese mice [1]; 2 weeks low-calorie feed, FIG. 10) | plasma triglyceride level measured on the 14th day (diet-induced obese mice [1]; 14th day of low-calorie feed, FIG. 11) | changes in body weight (diet-induced obese mice [1]; before and after 2 weeks low-calorie feed, FIG. 8) | weight of subcutaneous fat tissue (diet-induced obese mice [2]) | weight of mesenteric (visceral) fat tissue (diet-induced obese mice [2]) | changes in body weight (diet-induced obese mice [2]) | weight of mesenteric (visceral) fat tissue (diet-induced obese mice [3]) | changes in body weight (diet-induced obese mice [3])
1 | Cn1c(=O)c2c(ncn2C)n(C)c1=O [caffeine] | did not show any significant difference | did not show any significant difference | lower values | did not show any significant difference | did not show any significant difference | values equivalent to those of the control group | did not show any significant difference | significantly lower values
2 | glucosyl hesperidin | – | – | – | did not show any significant difference | did not show any significant difference | values equivalent to those of the control group | did not show any significant difference | equivalent values
